Like-named read-outs stand apart in the source and are kept apart here.
How the values were obtained:
[1] = target: T1, NOX (NADPH oxidase) (Homo sapiens, UniProt P04839); experiment: NOX activity measurement in a cell-free system using a homogenate of differentiated HL-60 cells (NADPH consumption, fluorometry); assay type: biochemical; details: for NOX inhibitory activity (distribution %): share of the black ginger extract's NOX inhibitory activity per compound
T1 construct: endogenous in cells; host or cells: HL-60 cells differentiated with 1% DMSO, used as a sonicated homogenate supernatant (A1) or as viable cells (A2)
T1 sequence (P04839 2-570 limits assumed): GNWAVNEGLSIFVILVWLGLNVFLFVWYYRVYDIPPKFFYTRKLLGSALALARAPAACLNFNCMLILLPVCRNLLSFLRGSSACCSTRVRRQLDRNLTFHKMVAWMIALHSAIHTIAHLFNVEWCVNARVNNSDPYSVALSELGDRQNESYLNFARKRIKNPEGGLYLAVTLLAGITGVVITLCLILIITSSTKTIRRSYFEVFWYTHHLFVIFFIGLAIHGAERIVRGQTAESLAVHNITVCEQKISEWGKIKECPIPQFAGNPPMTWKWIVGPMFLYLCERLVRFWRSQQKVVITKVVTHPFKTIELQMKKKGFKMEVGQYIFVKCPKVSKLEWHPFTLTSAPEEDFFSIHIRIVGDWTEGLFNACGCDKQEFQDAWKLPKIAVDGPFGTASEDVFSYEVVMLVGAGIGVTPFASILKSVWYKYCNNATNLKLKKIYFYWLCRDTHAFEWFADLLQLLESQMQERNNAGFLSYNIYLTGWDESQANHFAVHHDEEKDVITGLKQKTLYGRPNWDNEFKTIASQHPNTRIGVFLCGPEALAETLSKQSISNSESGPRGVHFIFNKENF
T1 sequence (P13498 2-195 partner limits assumed): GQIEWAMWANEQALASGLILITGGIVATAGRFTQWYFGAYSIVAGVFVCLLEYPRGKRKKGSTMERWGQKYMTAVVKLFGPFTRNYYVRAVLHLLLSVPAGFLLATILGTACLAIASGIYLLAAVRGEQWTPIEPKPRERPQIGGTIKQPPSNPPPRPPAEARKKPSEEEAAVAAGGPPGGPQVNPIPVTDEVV
Source text: Human myeloid leukemia cell HL-60 repeats proliferation in an undifferentiated state but upon addition of DMSO (dimethyl sulfoxide), retinoic acid or the like, it is known to differentiate into mature granulocytes and lose the ability to proliferate, as accompanied by intracellular expression of NOX (NADPH oxidase) which also serves as an index for differentiation; the expressed NOX can be utilized as an enzyme source for evaluating NOX inhibitory activity.
To induce differentiation into NOX expressing granulocytes, undifferentiated HL-60 cells cultured in a 10% FBS supplemented RPMI 1640 medium were suspended in a 1% DMSO containing, 10% FBS supplemented RPM 11640 medium to give a density of 5×10^5 cells/ml, and the suspension was distributed among Petri dishes (i.d. 10 cm) in 15 ml portions and cultured in a CO2 incubator (37° C.) for three days; thereafter, 10 ml of a 1% DMSO containing, 10% FBS supplemented RPM 11640 medium was added into each of the Petri dishes and culture was performed for an additional three days, thus yielding differentiated HL-60 cells in which NOX was expressed. As described below, the differentiated HL-60 cells, either as a homogenate or in a viable state, were subjected to NOX activity measurement.
After being cooled with ice, the suspension was treated with a sonicator (Bioruptor UCD-250 HSA; product of Cosmo Bio Co., Ltd.) by repeating three cycles of a process under the condition of 4° C. or below that consisted of 20-sec disrupting at maximum power and 30-sec interval cooling, whereupon a cell homogenate was obtained. The homogenate was centrifuged at 1000 g for 4 minutes to remove debris; to the resulting supernatant, nine volumes of a reaction buffer (65 mM phosphate buffered solution containing 1 mM EGTA, 10 μM FAD and 170 mM sucrose; pH 7.0) were added to prepare a homogenate's supernatant for NOX activity measurement (equivalent to 1×10^7 cells/ml).
For reaction with NOX, 50 μl of the above-described cell homogenate was poured into each well of a 96-well microplate and after adding 25 μl of a 0.5 mM SDS solution as a NOX activator and 25 μl of a 0.4 mM NADPH solution as a substrate, the reaction was carried out at 25° C. for 30-90 minutes. The NOX activity was determined by measuring the rate of NADPH consumption through fluorometry (Ex: 355 nm/Em: 460 nm).

[2] = tested on: NFκB; experiment: NFκB inhibiting action: nitrous acid production in LPS-stimulated RAW 264.7 cells (Griess reagent); assay type: cell-based; details: Mus musculus, RAW264.7, 24 h; read-out: NFκB inhibition IC50
Experimental: It is known that when macrophage-like RAW 264.7 cells are stimulated with LPS (lipopolysaccharide), NFκB is activated, whereby the expression of iNOS (inducible NO synthetase) is enhanced, causing nitrous acid to accumulate in the culture broth due to the enzymatic activity of iNOS; the activation of NFκB can therefore be evaluated by measuring the buildup of nitrous acid in the culture broth.
RAW 264.7 cells were cultured in a 10% FBS supplemented RPMI 1640 culture broth. The cells were then suspended in the same culture broth to give a density of 4×10^5 cells/ml; the suspension was distributed on a 96-well microplate in 100 μl portions per well and subjected to pre-culture (in a CO2 incubator) for 24 hr. […] To measure NFκB inhibitory activity, a DMSO solution of each test sample was dissolved in the foregoing culture broth to make 3-fold serial dilutions having DMSO concentrations of 1% and less and absorbance was measured with and without adding the stimulant LPS.

[3] = Example 4, cell-free system using a homogenate of differentiated HL-60 cells, methoxyflavonoid comparison, read-out: IC50 (μM), NOX inhibitory activity
[4] = cell-free system using a homogenate
[5] = Example 5, cell-free system using a homogenate, compounds extracted and fractionated from black ginger, read-out: NOX inhibition IC50

| SMILES | IC50 [1, 3] | IC50 [2] | IC50 [1, 5] | other results |
| --- | --- | --- | --- | --- |
| COc1cccc(/C=C/C(=O)c2ccccc2O)c1OC [2,3-Dimethoxy-2′-hydroxychalcone] | > 100 µM |  |  |  |
| COc1ccc(CCC(=O)c2c(O)cc(OC)cc2O)cc1 [2′,6′-Dihydroxy-4,4′-dimethoxydihydrochalcone] | > 100 µM |  |  |  |
| COc1cc(O)c(C(=O)/C=C/c2ccccc2)c(O)c1 [2′,6′-Dihydroxy-4′-methoxychalcone] | > 100 µM |  |  |  |
| COc1ccc2c(=O)c(OC)c(-c3ccc(OC)c(OC)c3)oc2c1 [3,7,3′,4′-tetramethoxyflavone] | > 100 µM |  |  |  |
| CC(=O)c1cc2ccccc2oc1=O [3-Acetylcoumarin] | > 100 µM |  |  |  |
| O=c1cc(-c2ccc(O)c(O)c2)oc2ccccc12 [3′,4′-Dihydroxyflavone] | 75 µM |  |  |  |
| COc1ccc(-c2cc(=O)c3ccccc3o2)cc1OC [3′,4′-Dimethoxyflavone] | 15 µM |  |  |  |
| COc1ccc(/C=C/C(=O)c2ccccc2)cc1 [4-Methoxychalcone] | > 100 µM |  |  |  |
| COc1ccc(C(=O)/C=C/c2ccccc2)cc1 [4′-Methoxychalcone] | > 100 µM |  |  |  |
| COc1cc(-c2cc(=O)c3c(OC)c(OC)c(OC)cc3o2)cc(OC)c1OC [5,6,7,3′,4′,5′-Hexamethoxyflavone] | ~100 µM |  |  |  |
| COc1ccc(-c2cc(=O)c3c(OC)c(OC)c(OC)c(OC)c3o2)cc1OC [5,6,7,8,3′,4′-Hexamethoxyflavone] | 80 µM |  |  | NOX inhibitory activity (in words) [1, 4]: not found to have any strong NOX inhibitory activity |
| COc1cc(OC)c2c(=O)cc(-c3cc(OC)c(OC)c(OC)c3)oc2c1 [5,7,3′,4′,5′-Pentamethoxyflavone] | > 100 µM |  |  |  |
| COc1ccc(-c2oc3cc(O)cc(O)c3c(=O)c2OC)cc1O [5,7,3′-Trihydroxy-3,4′-dimethoxyflavone] | ~100 µM |  |  |  |
| COc1cc(C2CC(=O)c3c(O)cc(O)cc3O2)cc(OC)c1OC (centres unmarked) [5,7-Dihydroxy-3′,4′,5′-trimethoxyflavanone] | > 100 µM |  |  |  |
| COc1cc(C)c2c(=O)c(-c3ccccc3)coc2c1 [5-Methyl-7-methoxy-isoflavone] | > 100 µM |  |  |  |
| O=c1cc(-c2ccc(O)c(O)c2)oc2c(O)c(O)ccc12 [7,8,3′,4′-Tetrahydroxyflavone] | ~100 µM |  |  |  |
| COc1ccc(-c2cc(=O)c3ccc(OC)c(OC)c3o2)cc1OC [7,8,3′,4′-Tetramethoxyflavone] | ~100 µM |  |  |  |
| COc1cc2ccc(=O)oc2c(C(C)=O)c1OC [8-Acetyl-6,7-dimethoxycoumarin] | > 100 µM |  |  |  |
| CC(=O)c1c(O)ccc2ccc(=O)oc12 [8-Acetyl-7-hydroxycoumarin] | > 100 µM |  |  |  |
| COc1cc(OC)c2c(=O)cc(-c3ccc(OC)c(OC)c3)oc2c1 [KPEt-21, 5,7,3′,4′-Tetramethoxyflavone] | 8 µM | 6 µM | 38 µM | NOX inhibitory activity (distribution %) ([1]; Example 5): 12%; NOX inhibitory activity (in words) [1, 4]: strong NOX inhibitory activity |
| COc1ccc(-c2oc3cc(OC)cc(OC)c3c(=O)c2OC)cc1 [KPEt-262, 3,5,7,4′-Tetramethoxyflavone] |  | 32 µM | > 100 µM |  |

Continued, in another order:

| IC50 [1, 3] | IC50 [2] | IC50 [1, 5] | SMILES | other results |
| --- | --- | --- | --- | --- |
| > 100 µM |  |  | COc1c(O)cc2ccc(=O)oc2c1C(C)=O [8-Acetyl-6-hydroxy-7-methoxycoumarin] |  |
| > 100 µM |  |  | COc1ccc2ccc(=O)oc2c1C(C)=O [8-Acetyl-7-methoxycoumarin] |  |
| 23 µM | 32 µM | 70 µM | COc1cc(OC)c2c(=O)c(OC)c(-c3ccc(OC)c(OC)c3)oc2c1 [KPEt-22, 3,5,7,3′,4′-Pentamethoxyflavone] | NOX inhibitory activity (distribution %) ([1]; Example 5): 45%; NOX inhibitory activity (in words) [1, 4]: strong NOX inhibitory activity |
|  | 7 µM | 53 µM | COc1cc(OC)c2c(=O)cc(-c3ccccc3)oc2c1 [KPEt-23, 5,7-Dimethoxyflavone] | NOX inhibitory activity (distribution %) ([1]; Example 5): 19% |
|  | 7 µM | 53 µM | COc1ccc(-c2cc(=O)c3c(OC)cc(OC)cc3o2)cc1 [KPEt-25, 5,7,4′-Trimethoxyflavone] | NOX inhibitory activity (distribution %) ([1]; Example 5): 21% |
|  | 55 µM | > 100 µM | COc1cc(O)c2c(=O)c(OC)c(-c3ccc(OC)c(OC)c3)oc2c1 [KPEt-41, 5-hydroxy-3,7,3′,4′-Tetramethoxyflavone] |  |
|  | 27 µM | > 100 µM | COc1cc(OC)c2c(=O)c(OC)c(-c3ccccc3)oc2c1 [KPEt-261, 3,5,7-Trimethoxyflavone] |  |
|  | 42 µM | > 100 µM | COc1cc(O)c2c(=O)cc(-c3ccccc3)oc2c1 [KPEt-421, 5-hydroxy-7-Methoxyflavone] |  |
|  | 56 µM | > 100 µM | COc1ccc(-c2cc(=O)c3c(O)cc(OC)cc3o2)cc1 [KPEt-422, 5-hydroxy-7,4′-Dimethoxyflavone] |  |
|  | 29 µM | > 100 µM | COc1cc(O)c2c(=O)c(OC)c(-c3ccccc3)oc2c1 [KPEt-431, 5-hydroxy-3,7-Dimethoxyflavone] |  |
|  | 30 µM | > 100 µM | COc1ccc(-c2oc3cc(OC)cc(O)c3c(=O)c2OC)cc1 [KPEt-432, 5-hydroxy-3,7,4′-Trimethoxyflavone] |  |
| 19 µM |  |  | CC(=O)OC(C)(C)[C@@H]1Cc2c(ccc3ccc(=O)oc23)O1 [o-Acetylcolumblanetin] |  |
